In ChEMBL document CHEMBL4130341 (Medchemcomm, 2016):
Calls of active or inactive are those of the source. The rule behind the calls is not given here.

Tests used:
[1] = biological target: T1, Nuclear factor erythroid 2-related factor 2 (Mus musculus) (UniProt Q60795); test: Activation of Nrf2 in mutant mouse BpRc1 cells cytosolic fraction assessed as induction of quinone reductase activity using 2,6-DCIP as substrate in presence of NADH incubated for 48 hrs measured for 1 min; assay type: cell-based
T1 sequence (whole entry): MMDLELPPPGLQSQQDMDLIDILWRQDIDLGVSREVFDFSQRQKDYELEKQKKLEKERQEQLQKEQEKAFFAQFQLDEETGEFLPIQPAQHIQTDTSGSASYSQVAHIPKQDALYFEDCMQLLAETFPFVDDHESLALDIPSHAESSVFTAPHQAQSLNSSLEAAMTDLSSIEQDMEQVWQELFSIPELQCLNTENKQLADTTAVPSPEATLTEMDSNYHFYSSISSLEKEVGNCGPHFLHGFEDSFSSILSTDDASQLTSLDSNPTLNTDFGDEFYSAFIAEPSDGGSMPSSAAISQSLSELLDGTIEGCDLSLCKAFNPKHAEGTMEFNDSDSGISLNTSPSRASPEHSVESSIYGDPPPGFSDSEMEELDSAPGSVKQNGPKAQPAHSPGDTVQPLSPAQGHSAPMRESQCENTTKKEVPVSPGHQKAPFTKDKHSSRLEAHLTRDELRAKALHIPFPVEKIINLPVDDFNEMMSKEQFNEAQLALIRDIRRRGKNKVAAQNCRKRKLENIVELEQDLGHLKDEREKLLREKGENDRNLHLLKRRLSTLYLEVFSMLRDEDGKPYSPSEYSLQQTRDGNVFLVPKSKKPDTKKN

TK-10 = test: Cytotoxicity against human TK10 cells assessed as cell survival after 24 hrs by SRB assay; assay type: functional, cell-based; details: TK-10, 24 h
Rattus norvegicus [2] = test: In vivo induction of CYP450 activity in Wistar rat liver microsomal fraction at 15 mg/kg, po qd administered over 2 weeks by measuring EROD activity using 7-ethoxyresorufine as substrate measured for 5 mins; assay type: ADME, organism-based; details: microsomes
[3] = Ratio of IC50 for cytotoxicity against mutant mouse BpRc1 cells to CD for activation of Nrf2 in mutant mouse BpRc1 cells cytosolic fraction
Rattus norvegicus [4] = test: In vivo induction of CYP450 activity in Wistar rat colon microsomal fraction at 15 mg/kg, po qd administered over 2 weeks by measuring EROD activity using 7-ethoxyresorufine as substrate measured for 5 mins; assay type: ADME, organism-based; details: microsomes
[5] = Ratio of IC50 for cytotoxicity against wild type mouse Hepa1c1c7 cells to CD for activation of Nrf2 in wild type mouse Hepa1c1c7 cells cytosolic fraction
Salmonella typhimurium = test: Mutagenicity in Salmonella typhimurium TA98 in presence of mouse liver S9 fraction by Ames test; assay type: toxicity, organism-based; details: salmonella enterica subsp. enterica serovar typhimurium
[6] = biological target: T1, Nuclear factor erythroid 2-related factor 2 (Mus musculus); test: Induction of Nrf2 nuclear translocation in mouse Hepa1c1c7 cells at 20 uM after 6 hrs by DAPI/Hoechst 33258 staining-based immunofluorescence method; assay type: cell-based
[7] = biological target: T1, Nuclear factor erythroid 2-related factor 2 (Mus musculus); test: Activation of Nrf2 in mutant mouse BpRc1 cells cytosolic fraction assessed as induction of quinone reductase activity at 10 uM using 2,6-DCIP as substrate in presence of NADH incubated for 48 hrs measured for 1 min relative to control; assay type: cell-based
[8] = biological target: T1, Nuclear factor erythroid 2-related factor 2 (Mus musculus); test: Activation of Nrf2 in wild type mouse Hepa1c1c7 cells cytosolic fraction assessed as induction of quinone reductase activity at 10 uM using 2,6-DCIP as substrate in presence of NADH incubated for 48 hrs measured for 1 min relative to control
[9] = biological target: T1, Nuclear factor erythroid 2-related factor 2 (Mus musculus); test: Ratio of CD for activation of Nrf2 in mutant mouse BpRc1 cells cytosolic fraction to CD for activation of Nrf2 in wild type mouse Hepa1c1c7 cells cytosolic fraction; assay type: cell-based
[10] = Cytotoxicity against mutant mouse BpRc1 cells after 48 hrs by SRB assay; assay type: functional, cell-based; details: BPrc1, 48 h
[11] = biological target: T1, Nuclear factor erythroid 2-related factor 2 (Mus musculus); test: Ratio of activation of wild type Nrf2 in mouse Hepa1c1c7 cells cytosolic fraction to activation of Nrf2 in mutant mouse BpRc1 cells cytosolic fraction; assay type: cell-based
Rattus norvegicus [12] = test: In vivo induction of quinone reductase activity in Wistar rat liver cytosolic fraction at 15 mg/kg, po qd administered over 2 weeks using 2,6-DCIP as substrate relative to control; assay type: functional
Rattus norvegicus [13] = test: In vivo induction of GST activity in Wistar rat liver cytosolic fraction at 15 mg/kg, po qd administered over 2 weeks by measuring GS-CDNB adduct formation using CDNB/GSH as substrate measured for 1 min relative to control; assay type: functional
Rattus norvegicus [14] = test: In vivo induction of GST activity in Wistar rat colon cytosolic fraction at 15 mg/kg, po qd administered over 2 weeks by measuring GS-CDNB adduct formation using CDNB/GSH as substrate measured for 1 min relative to control; assay type: functional
Rattus norvegicus [15] = test: In vivo induction of quinone reductase activity in Wistar rat colon cytosolic fraction at 15 mg/kg, po qd administered over 2 weeks using 2,6-DCIP as substrate relative to control; assay type: functional
Rattus norvegicus [16] = test: Toxicity in Wistar rat assessed as effect on behavior at 15 mg/kg, po qd administered over 2 weeks; assay type: organism-based; details: in vivo, 336 h
[17] = Cytotoxicity against wild type mouse Hepa1c1c7 cells after 48 hrs by SRB assay; assay type: functional, cell-based; details: Hepa-1c1c7, 48 h
Rattus norvegicus [18] = test: In vivo induction of quinone reductase activity in Wistar rat mammary gland cytosolic fraction at 15 mg/kg, po qd administered over 2 weeks using 2,6-DCIP as substrate relative to control; assay type: functional
[19] = biological target: T1, Nuclear factor erythroid 2-related factor 2 (Mus musculus); test: Activation of Nrf2 in wild type mouse Hepa1c1c7 cells cytosolic fraction assessed as induction of quinone reductase activity using 2,6-DCIP as substrate in presence of NADH incubated for 48 hrs measured for 1 min
HK-2 = test: Genotoxicity in human HK2 cells assessed as induction of DNA strand breakage at 20 uM after 6 hrs by DAPI staining based alkaline comet assay; assay type: toxicity, cell-based; details: hk-2, 6 h
Rattus norvegicus [20] = test: In vivo induction of CYP450 activity in Wistar rat mammary gland microsomal fraction at 15 mg/kg, po qd administered over 2 weeks by measuring EROD activity using 7-ethoxyresorufine as substrate measured for 5 mins; assay type: ADME, organism-based; details: microsomes
MCF7 = test: Cytotoxicity against human MCF7 cells assessed as cell survival at 100 uM after 24 hrs by SRB assay relative to control; assay type: functional
Rattus norvegicus [21] = test: In vivo induction of GST activity in Wistar rat mammary gland cytosolic fraction at 15 mg/kg, po qd administered over 2 weeks by measuring GS-CDNB adduct formation using CDNB/GSH as substrate measured for 1 min relative to control; assay type: functional
Rattus norvegicus [22] = test: Toxicity in Wistar rat assessed as effect on body weight at 15 mg/kg, po qd administered over 2 weeks; assay type: organism-based; details: in vivo, 336 h

O=C(/C=C/c1cccnc1Br)c1ccccc1O
CD [1]: 10 µM | IC50 (TK-10): 26 µM | Activity (Rattus norvegicus [2]): Non-Toxic | Ratio [3]: >20 | Activity (Rattus norvegicus [4]): Non-Toxic | Ratio [5]: 2.8 | Activity (Salmonella typhimurium): Non-Toxic | Activity [6]: Active | fold change (FC) [7]: 1.98 | fold change (FC) [8]: 1.57 | Ratio [9]: 0.71 | IC50 [10]: > 200 µM | Ratio [11]: 0.8 | Activity (Rattus norvegicus [12]): 25% | Activity (Rattus norvegicus [13]): 29% | Activity (Rattus norvegicus [14]): 16% | Activity (Rattus norvegicus [15]): 11% | Activity (Rattus norvegicus [16]): Non-Toxic | IC50 [17]: 39 µM | Activity (Rattus norvegicus [18]): 13% | CD [19]: 14 µM | Activity (HK-2): Non-Toxic | Activity (Rattus norvegicus [20]): Non-Toxic | Activity (MCF7): Active | Activity (Rattus norvegicus [21]): 10% | Activity (Rattus norvegicus [22]): Non-Toxic
